What was measured:
[1] = Formation of visually clear, shelf-stable MOIW microemulsions with phospholipid and polyethylene glycol derivative; assay type: physicochemical; conditions: used in conjunction with the phospholipid
Text: A shelf-stable microemulsion may be determined in one of two ways. […] Either type of dissociation means that the microemulsion is not shelf-stable.
A visually clear microemulsion has an average particle diameter of 200 nm and less and lacks precipitated solid crystals visible to the naked eye.

[2] = Solubility of DHEA in ethanol and MCT oil; assay type: physicochemical
Text: An alcohol-soluble species is a species that is insoluble in water and has a greater solubility in ethanol than in medium chain triglyceride (MCT) oils. […] Alcohol-soluble species are preferably pharmacologically active, more preferably are a drug or a supplement, and neither include nor are water. Thus, liquids and solids may exist that technically are soluble in alcohol, but because they also are soluble in water or more or equivalently soluble in MCT oils than in ethanol are not “alcohol-soluble species”.
Solubilized means that the alcohol-soluble species to be delivered is in the solution of the droplet. […] Thus, if either average particle diameters greater than 200 nm or precipitated crystals visible to the naked eye form, the alcohol-soluble species is not solubilized in the solution of the droplet. If an alcohol-soluble species is not solubilized in the solution, it is insoluble in the solution. In many respects, solubility may be thought of as a concentration dependent continuum. For example, the following descriptive terms may be used to express solubility of a solute in a solvent (grams solid/mL of solvent) at 25 degrees Celsius: […]

Molecule | phospholipid to polyethylene glycol derivative ratios resulting in visually clear, shelf-stable microemulsions [1] | descriptive solubility level in MCT oil ([2]; MCT oil) | solubility in MCT oil ([2]; MCT oil) | descriptive solubility level in ethanol ([2]; ethanol) | solubility in ethanol ([2]; ethanol)
polysorbate 20 | did not form visually clear, shelf-stable microemulsions | – | – | – | –
C[C@]12CC[C@H](O)CC1=CC[C@@H]1[C@@H]2CC[C@]2(C)C(=O)CC[C@@H]12 [DHEA, dehydroepiandrosterone (3-beta-hydroxyandrosteron-5-en-17-one)] | – | sparingly soluble | approximately 10 mg/mL | freely soluble | approximately 150 mg/mL

Reference: US20230114405A1, “Microemulsion Delivery Systems for A Female Hormone Blend with Alcohol-Soluble Species Including Nonderivatized Hormones” (Quicksilver Scientific, Inc., priority 2019, published 2023)
